In US8119614B2, “Substitution derivatives of N6-benzyladenosine, methods of their preparation, their use for preparation of drugs, cosmetic preparations and growth regulators, pharmaceutical preparations, cosmetic preparations and growth regulators containing these compounds” (Ustav Experimentalni Botaniky Akademie Ved Ceske Republiky, priority 2002, dated 2012):

Experiments:
Assay type in all cases: cell-based
Human lymphocytes = assay: Immunosuppressive activity: concanavalin A induced lymphocyte proliferation, [^3H]-TdR incorporation; details: 72 hours, read-out: Human lymphocytes ED50
Experimental: Human heparinized peripheral blood was obtained from healthy volunteers by cubital vein punction. The blood was diluted in PBS (1:3) and mononuclear cells were separated by centrifugation in Ficoll-Hypaque density gradient (Pharmacia, 1.077 g/ml) at 2200 rpm for 30 minutes. Following centrifugation, lymphocytes were washed in PBS and resuspended in cell culture medium (RMPI 1640, 2 mM glutamine, 100 U/ml penicillin, 100 μg/ml streptomycin, 10% fetal calf serum and sodium bicarbonate).
The cells were diluted at target density of 1,100,000 cells/ml were added by pipette (180 μl) into 96/well microtiter plates. Four-fold dilutions of the intended test concentration were added at time zero in 20 μl aliquots to the microtiter plate wells. Usually, test compound was evaluated at six 4-fold dilutions. In routine testing, the highest well concentration was 266.7 μM. All drug concentrations were examined in duplicates. All wells with exception of unstimulated controls were activated with 50 μl of concanavalin A (25 μg/ml). Incubations of cells with test compounds lasted for 72 hours at 37° C., in 5% CO2 atmosphere and 100% humidity. At the end of incubation period, the cells were assayed by using the [^3H]-TdR:
Cell cultures were incubated with 0.5 μCi (20 μl of stock solution 500 μCi/ml) per well for 6 hours at 37° C. and 5% CO2. The automated cell harvester was used to lyse cells in water and adsorb the DNA onto glass-fiber filters in the format of microtiter plate. The DNA incorporated [^3H]-TdR was retained on the filter while unincorporated material passes through. The filters were dried at room temperature overnight, sealed into a sample bag with 10-12 ml of scintillant. The amount of [^3H]-TdR present in each filter (in cpm) was determined by scintillation counting in a Betaplate liquid scintillation counter. The effective dose of immunosuppressant (ED) was calculated using the following equation: ED=(CCPMdrug exposed well/mean CCPMcontrol wells)×100%. The ED50 value, the drug concentration inhibiting proliferation of 50% of lymphocytes, was calculated from the obtained dose response curves.

[1] = test system: tobacco callus Nicotiana tabacum L. cv. Wisconsin 38; assay: Growth of cytokinin-dependent tobacco callus; details: for Activity (%) [10^−5 mol · l^−1 BAP = 100%]: callus growth, at concentration with highest activity; for Concentration with highest activity: fresh callus weight after four weeks
[2] = test system: human diploid fibroblasts (HCA cells); assay: Inhibition of senescence of mammal cells: β-galactosidase staining of senescent cells; details: for Senescent cells (%) HCA25: passage 25; for Senescent cells (%) HCA45: passage 45; for Senescent cells (%) HCA80: passage 80
Experimental: In this example, human diploid fibroblasts (HCA cells with different levels of passage: passage 25—labelling HCA25; passage 45—labelling HCA45; passage 80—labelling HCA80) were used for studying β-galactosidase activity. Medium used for cells cultivation was removed, cells were washed twice with PBS and fixed in 2-3 ml of fixation agent consisting of 2% of formaldehyde and 0.2% of flutaraldehyde in PBS. Cells were incubated at room temperature for 5 min and subsequently washed twice with PBS. Cells were then incubated at 37° C. (without CO2) for 1 to 16 hours in 2-3 ml of solution comprising potassium ferricyanide (5 mM), potassium ferrocyanide (5 mM), MgCl2 (2 mM), X-gal (5-bromo-4-chloro-3-indolyl-β-D-galactopyranoside) (1 mg/ml) in citrate/phosphate buffer, pH 6.0. […] In this experiment only senescent cells were labelled due to the effect of β-galactosidase on the substrate.

[3] = test system: human malignant melanoma cells G361; assay: In vitro cytotoxic activity, Calcein AM assay, G-361; details: 72 hours, read-out: IC 50 G-361
Method in brief: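 Cells seeded at 10^4 per well, pre-incubated 24 h, then exposed to six 4-fold dilutions (top well concentration usually 166.7 μM, duplicates) for 72 h at 37 °C. Viability read by Calcein AM fluorescence after 1 h; GI50 taken from dose-response curves relative to control wells.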

| Compound | EC50 (Human lymphocytes) | Activity (%) [10^−5 mol · l^−1 BAP = 100%] [1] | Concentration with highest activity [1] | Senescent cells (%) HCA25 [2] | Senescent cells (%) HCA45 [2] | Senescent cells (%) HCA80 [2] | IC50 [3] |
| --- | --- | --- | --- | --- | --- | --- | --- |
| OC[C@H]1O[C@@H](n2cnc3c(NCc4ccccc4Cl)ncnc32)[C@H](O)[C@@H]1O [2-chlorobenzylamino, 6-(2-chlorobenzylamino)purine riboside] | 8.4 µM | 93 ± 4% | 10^−6 mol · l^−1 |  |  |  |  |
| COc1cccc(CNc2ncnc3c2ncn3[C@@H]2O[C@H](CO)[C@@H](O)[C@H]2O)c1 [3-methoxybenzylamino, 6-(3-methoxybenzylamino)purine riboside] |  | 92 ± 1% | 10^−6 mol · l^−1 | 5% | 6% | 12% | > 167 µM |
| OC[C@H]1O[C@@H](n2cnc3c(NCc4cccc(Cl)c4)ncnc32)[C@H](O)[C@@H]1O [3-chlorobenzylamino, 6-(3-chlorobenzylamino)purine riboside] | 2.5 µM | 96 ± 5% | 10^−5 mol · l^−1 |  |  |  |  |
| Cc1cccc(CNc2ncnc3c2ncn3[C@@H]2O[C@H](CO)[C@@H](O)[C@H]2O)c1 [3-methylbenzylamino, 6-(3-methylbenzylamino)purine riboside] | 6.5 µM | 90 ± 2% | 10^−6 mol · l^−1 |  |  |  |  |
| OC[C@H]1O[C@@H](n2cnc3c(NCc4cccc(F)c4)ncnc32)[C@H](O)[C@@H]1O [3-fluorobenzylamino, 6-(3-fluorobenzylamino)purine riboside] | 7.1 µM | 91 ± 6% | 10^−5 mol · l^−1 | 3% | 5% | 13% | 15.7 µM |
| OC[C@H]1O[C@@H](n2cnc3c(NCc4ccc(Cl)cc4)ncnc32)[C@H](O)[C@@H]1O [4-chlorobenzylamino, 6-(4-chlorobenzylamino)purine riboside] | 3.9 µM | 46 ± 14% | 10^−6 mol · l^−1 |  |  |  |  |
| OC[C@H]1O[C@@H](n2cnc3c(NCc4ccccc4F)ncnc32)[C@H](O)[C@@H]1O [2-fluorobenzylamino, 6-(2-fluorobenzylamino)purine riboside] | 5.6 µM | 100 ± 9% | 10^−6 mol · l^−1 | 4% | 4% | 15% |  |
| COc1ccccc1CNc1ncnc2c1ncn2[C@@H]1O[C@H](CO)[C@@H](O)[C@H]1O [2-methoxybenzylamino, 6-(2-methoxybenzylamino)purine riboside] |  | 108 ± 1% | 10^−5 mol · l^−1 | 4% | 4% | 16% | > 167 µM |
| COc1cccc(CNc2ncnc3c2ncn3[C@@H]2O[C@H](CO)[C@@H](O)[C@H]2O)c1O [2-hydroxy-3-methoxybenzylamino, 6-(2-hydroxy-3-methoxybenzylamino)purine riboside] | 1.4 µM |  |  |  |  |  | 148 µM |
| Cc1ccccc1CNc1ncnc2c1ncn2[C@@H]1O[C@H](CO)[C@@H](O)[C@H]1O [2-methylbenzylamino, 6-(2-methylbenzylamino)purine riboside] | 5.8 µM | 98 ± 4% | 10^−6 mol · l^−1 |  |  |  |  |
| OC[C@H]1O[C@@H](n2cnc3c(NCc4ccc(F)cc4)ncnc32)[C@H](O)[C@@H]1O [4-fluorobenzylamino, 6-(4-fluorobenzylamino)purine riboside] | 9.4 µM | 100 ± 6% | 10^−6 mol · l^−1 |  |  |  |  |
| OC[C@H]1O[C@@H](n2cnc3c(NCc4cccc(Br)c4)ncnc32)[C@H](O)[C@@H]1O [3-bromobenzylamino, 6-(3-bromobenzylamino)purine riboside] |  | 82 ± 11% | 10^−6 mol · l^−1 |  |  |  |  |
